Measured values published in publication PMC9358681 (Biochemical pharmacology, 2022).
Where “and” joins values, the source holds several entries; their conditions need not be identical. Equal values may be shown once. Read-outs that look alike come from different tables or passages of the source.

Key:
human A2BAR [1] = biological target: T1, human A2BAR (Homo sapiens, UniProt P29275); assay: [3H]PSB-603 displacement on CHO-spap-hA2BAR membranes; assay type: binding
T1 construct: host or cells: CHO-spap
T1 sequence (P29275 1-332): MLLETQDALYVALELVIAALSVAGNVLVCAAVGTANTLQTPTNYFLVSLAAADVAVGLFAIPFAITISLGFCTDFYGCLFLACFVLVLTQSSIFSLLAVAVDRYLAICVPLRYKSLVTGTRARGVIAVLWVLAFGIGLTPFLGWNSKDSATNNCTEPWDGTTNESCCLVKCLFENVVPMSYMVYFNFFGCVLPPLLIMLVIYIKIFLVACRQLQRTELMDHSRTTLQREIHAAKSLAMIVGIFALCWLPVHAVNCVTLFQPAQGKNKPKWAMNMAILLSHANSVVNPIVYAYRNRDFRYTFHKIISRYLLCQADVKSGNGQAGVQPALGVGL

A2B adenosine receptor [2] = biological target: T2, A2B adenosine receptor (Rattus norvegicus, UniProt P29276); assay: Radioligand binding, rat A2B ([125I]I-ABOPX, HEK-293); conditions: rat (r), HEK-293, [125I]I-ABOPX
T2 sequence (P29276 1-332): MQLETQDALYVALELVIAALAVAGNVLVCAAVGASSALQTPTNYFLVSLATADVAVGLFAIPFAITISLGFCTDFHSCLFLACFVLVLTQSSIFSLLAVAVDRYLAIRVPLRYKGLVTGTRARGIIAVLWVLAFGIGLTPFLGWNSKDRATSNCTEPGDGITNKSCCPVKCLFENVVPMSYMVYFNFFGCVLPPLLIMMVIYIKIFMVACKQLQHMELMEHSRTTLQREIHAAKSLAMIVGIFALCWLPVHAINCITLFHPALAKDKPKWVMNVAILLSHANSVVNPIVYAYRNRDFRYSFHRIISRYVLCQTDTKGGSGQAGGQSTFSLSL

A1 adenosine receptor [3] = biological target: T3, A1 adenosine receptor (Homo sapiens, UniProt P30542); assay: Radioligand binding, human A1 ([3H]R-PIA, HEK-293); conditions: HEK-293, [3H]R-PIA
T3 sequence (P30542 1-326): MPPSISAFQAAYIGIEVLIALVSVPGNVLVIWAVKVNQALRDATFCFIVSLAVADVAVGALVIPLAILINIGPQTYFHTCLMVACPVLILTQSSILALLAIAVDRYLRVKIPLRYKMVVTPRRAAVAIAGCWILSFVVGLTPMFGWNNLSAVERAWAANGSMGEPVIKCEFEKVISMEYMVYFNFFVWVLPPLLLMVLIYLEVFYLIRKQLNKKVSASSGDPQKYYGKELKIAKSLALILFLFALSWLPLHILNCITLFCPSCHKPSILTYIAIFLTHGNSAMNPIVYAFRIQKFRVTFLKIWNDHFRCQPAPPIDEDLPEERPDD
Source text: (§1) The A2B receptor selectivity was generally low, especially at the rat A2B receptor.

A2B adenosine receptor [4] = biological target: T4, A2B adenosine receptor (Homo sapiens, UniProt P29275); assay: Radioligand binding, human A2B ([125I]I-ABOPX, HEK-293); conditions: HEK-293, [125I]I-ABOPX
T4 sequence (P29275 1-332): T1 sequence (P29275 1-332)

human A2BAR [5] = biological target: T1, human A2BAR; assay: [3H]PSB-603 competition association assay; assay type: binding; conditions: for RT: RT = 1/koff, competing ligand at 1.0-fold IC50, up to 3 hr; for Kd: read-out: Kinetic KD (koff/kon)
Protocol: In all radioligand binding experiments, CHO-spap-hA2BAR membranes were thawed and homogenized using an Ultra Turrax homogenizer at 24,000 rpm (IKA-Werke GmbH & Co.KG, Staufen, Germany), diluted in assay buffer to the desired concentration (10–30 μg per well or Eppendorf tube). All materials were brought to 25 °C, 30 min prior to the experiment. ZM241385 (10 μM) was used to determine nonspecific binding (NSB).
Addition of CHO-spap-hA2BAR membrane aliquots initiated the association. The amount of receptor-bound radioligand was determined at different time points up to 3 hr. After 3 hr the incubation was terminated and samples were obtained as described under “Displacement experiments”.
All competition association data were globally fitted.

A2A adenosine receptor [6] = biological target: A2A adenosine receptor (Homo sapiens, UniProt P29274); assay: Radioligand binding, human A2A ([3H]CGS21680, HEK-293); conditions: HEK-293, [3H]CGS21680
A2A adenosine receptor (Homo sapiens, UniProt P29274), sequence (P29274 whole entry): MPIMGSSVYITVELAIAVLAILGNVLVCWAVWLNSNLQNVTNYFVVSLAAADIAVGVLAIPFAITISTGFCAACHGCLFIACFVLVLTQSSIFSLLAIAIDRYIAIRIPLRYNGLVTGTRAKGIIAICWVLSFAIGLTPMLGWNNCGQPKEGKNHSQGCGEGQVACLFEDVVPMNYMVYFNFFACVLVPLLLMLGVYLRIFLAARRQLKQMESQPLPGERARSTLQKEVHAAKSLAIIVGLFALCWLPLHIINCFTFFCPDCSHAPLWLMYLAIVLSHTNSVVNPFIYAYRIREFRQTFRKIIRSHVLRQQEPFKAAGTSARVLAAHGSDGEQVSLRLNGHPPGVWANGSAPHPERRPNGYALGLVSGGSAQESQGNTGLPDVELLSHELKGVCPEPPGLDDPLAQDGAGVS

A3 adenosine receptor = biological target: T5, A3 adenosine receptor (Homo sapiens, UniProt P0DMS8); assay: Radioligand binding, human A3 ([125I]I-AB-MECA, HEK-293); conditions: HEK-293, [125I]I-AB-MECA
T5 sequence (P0DMS8 1-318): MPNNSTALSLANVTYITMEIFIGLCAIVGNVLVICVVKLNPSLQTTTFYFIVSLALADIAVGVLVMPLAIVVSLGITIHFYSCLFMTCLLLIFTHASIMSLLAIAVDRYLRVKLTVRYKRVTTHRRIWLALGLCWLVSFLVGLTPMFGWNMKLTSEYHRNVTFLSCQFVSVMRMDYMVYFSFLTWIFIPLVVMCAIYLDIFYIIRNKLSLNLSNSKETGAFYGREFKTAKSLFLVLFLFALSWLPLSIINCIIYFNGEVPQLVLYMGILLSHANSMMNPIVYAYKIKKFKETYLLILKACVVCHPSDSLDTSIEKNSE
Source text: as §1

A2A adenosine receptor [7] = biological target: A2A adenosine receptor (Rattus norvegicus, UniProt P30543); assay: Radioligand binding, rat A2A ([3H]CGS21680, HEK-293); conditions: rat (r), HEK-293, [3H]CGS21680
A2A adenosine receptor (Rattus norvegicus, UniProt P30543), sequence (P30543 whole entry): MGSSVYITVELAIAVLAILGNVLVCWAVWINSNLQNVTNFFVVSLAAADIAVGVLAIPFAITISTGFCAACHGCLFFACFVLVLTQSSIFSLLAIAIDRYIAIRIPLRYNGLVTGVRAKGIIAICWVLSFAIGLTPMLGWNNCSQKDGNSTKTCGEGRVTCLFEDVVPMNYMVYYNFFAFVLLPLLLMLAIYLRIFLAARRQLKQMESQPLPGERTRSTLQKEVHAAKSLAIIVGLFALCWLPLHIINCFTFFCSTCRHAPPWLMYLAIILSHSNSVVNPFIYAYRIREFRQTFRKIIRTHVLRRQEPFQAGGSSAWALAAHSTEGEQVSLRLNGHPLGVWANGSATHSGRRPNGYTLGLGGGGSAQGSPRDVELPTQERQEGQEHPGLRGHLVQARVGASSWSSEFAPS

A1 adenosine receptor [8] = biological target: T6, A1 adenosine receptor (Rattus norvegicus, UniProt P25099); assay: Radioligand binding, rat A1 ([3H]R-PIA, HEK-293); conditions: HEK-293, [3H]R-PIA
T6 sequence (P25099 1-326): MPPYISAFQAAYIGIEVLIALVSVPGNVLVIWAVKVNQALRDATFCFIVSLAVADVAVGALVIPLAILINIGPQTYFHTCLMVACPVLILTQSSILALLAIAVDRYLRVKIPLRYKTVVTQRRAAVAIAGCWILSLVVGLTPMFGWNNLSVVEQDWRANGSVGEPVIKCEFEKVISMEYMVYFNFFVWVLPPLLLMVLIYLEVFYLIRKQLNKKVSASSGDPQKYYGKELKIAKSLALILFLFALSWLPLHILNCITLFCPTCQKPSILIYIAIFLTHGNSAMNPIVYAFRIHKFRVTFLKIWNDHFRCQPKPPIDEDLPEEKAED
Source text: as §1

[9] = […] [3H]PSB-603, 2 h, 25 °C, read-out: Ki (converted)
[10] = […] [3H]PSB-603, 2 h, 25 °C, read-out: pKi (converted)

Row | Compound | Ki (human A2BAR [1]; [9]) [nM] | RT (human A2BAR [5]; 25 °C) | Kd (human A2BAR [5]) [nM] | koff (human A2BAR [5]; read-out: koff (converted)) [s⁻¹] | kon (human A2BAR [5]; read-out: kon (converted)) [M⁻¹ s⁻¹] | Ki (A2A adenosine receptor [7]) [nM] | Ki (A1 adenosine receptor [8]) [nM] | also measured
1 | CCCn1c(=O)c2[nH]c(-c3ccc(OCC(=O)N[C@@H](C)c4ccccc4)cc3)nc2n(CCC)c1=O [Compound 25, (S)-2-(4-(2,6-dioxo-1,3-dipropyl-2,3,6,7-tetrahydro-1H-purin-8-yl)phenoxy)-N-(1-phenylethyl)acetamide] | 8.11 | 10 ± 2.3 min | 8.6 ± 3 | 0.00162 | 183000 | 165 | 10.4 | Ki (A2B adenosine receptor [2]): 20.2 nM; Ki (A1 adenosine receptor [3]): 23.7 ± 4.9 nM; Ki (A2B adenosine receptor [4]): 8.2 ± 2.5 nM; Ki (A2A adenosine receptor [6]): 21 ± 1.8 nM; Ki (A3 adenosine receptor): 156 ± 15 nM
2 | CCCn1c(=O)c2[nH]c(-c3ccc(OCC(=O)N(Cc4ccccc4)Cc4ccccc4)cc3)nc2n(CCC)c1=O [Compound 27] | – | – | – | – | – | – | – | Ki (human A2BAR [1]; [10]): 120 nM
3 | CCCn1c(=O)c2[nH]c(-c3ccc(OCC(=O)Nc4ccccc4)cc3)nc2n(CCC)c1=O [Compound 8] | 1.93 | 46 min and 46 ± 13 min | – | 0.000367 | 250000 | – | – | –
4 | CCCn1c(=O)c2[nH]c(-c3ccc(OCC(=O)Nc4ccc(C(F)(F)F)cc4)cc3)nc2n(CCC)c1=O [Compound 15] | 2.86 | – | – | – | – | – | – | kon (human A2BAR [5]; competing ligand at 1.0-fold IC50, […] [3H]PSB-603, up to 3 hr, 25 °C): Kinetics outside the range of the assay (see text)
5 | CCCn1c(=O)c2[nH]c(-c3ccc(OCC(=O)Nc4cnccn4)cc3)nc2n(CCC)c1=O [Compound 10, 2-(4-(2,6-dioxo-1,3-dipropyl-2,3,6,7-tetrahydro-1H-purin-8-yl)phenoxy)-N-(pyrazin-2-yl)acetamide] | 6950 | – | – | – | – | – | – | –
6 | CCCn1c(=O)c2[nH]c(-c3ccc(OCC(=O)Nc4ccc(C(C)=O)cc4)cc3)nc2n(CCC)c1=O [Compound 16] | – | 54 min and 54 ± 18 min | 1.7 ± 0.58 | – | – | – | – | Ki (human A2BAR [1]): 3.03 nM; koff (human A2BAR [5]): 0.000317 s⁻¹; kon (human A2BAR [5]): 183000 M⁻¹ s⁻¹
7 | CCCn1c(=O)c2[nH]c(-c3ccc(OCC(=O)NC4CCCC4)cc3)nc2n(CCC)c1=O [Compound 5, N-cyclopentyl-2-(4-(2,6-dioxo-1,3-dipropyl-2,3,6,7-tetrahydro-1H-purin-8-yl)phenoxy)acetamide] | 16700 | – | – | – | – | 19.1 ± 5.1 | 13.9 ± 1.8 | Ki (A2B adenosine receptor [2]): 26.3 nM
8 | CCCn1c(=O)c2[nH]c(-c3ccc(OCC(=O)NCc4ccc(Br)cc4)cc3)nc2n(CCC)c1=O [Compound 22, N-(4-bromobenzyl)-2-(4-(2,6-dioxo-1,3-dipropyl-2,3,6,7-tetrahydro-1H-purin-8-yl)phenoxy)acetamide] | 5.73 | – | 6.5 ± 3.6 | 0.000717 | 117000 | 112 | 32.7 | Ki (A1 adenosine receptor [3]): 586 ± 250 nM; Ki (A2B adenosine receptor [4]): 6.8 ± 0.8 nM; Ki (A2A adenosine receptor [6]): 26.1 ± 0.4 nM; Ki (A3 adenosine receptor): 274 ± 56 nM
9 | 2-(4-(2,6-dioxo-1,3-dipropyl-2,3,6,7-tetrahydro-1H-purin-8-yl) phenoxy)-N-(pyridin-4-ylmethyl)acetamide [Compound 9] | 1350 | – | – | – | – | – | – | pKi (human A2BAR [1]; […] [3H]PSB-603, 2 h, 25 °C): 5.87 ± 0.16
10 | CCCn1c(=O)c2[nH]c(-c3ccc(OCC(=O)NCc4ccc(O)c(O)c4)cc3)nc2n(CCC)c1=O [Compound 23, N-(3,4-dihydroxybenzyl)-2-(4-(2,6-dioxo-1,3-dipropyl-2,3,6,7-tetrahydro-1H-purin-8-yl)phenoxy)acetamide] | 24.4 | – | 27 ± 7.9 | 0.00165 | 66700 | – | – | –
11 | CCCn1c(=O)c2[nH]c(-c3ccc(OCC(=O)Nc4ccc([N+](=O)[O-])cc4)cc3)nc2n(CCC)c1=O [Compound 14] | 13.5 | 58 min and 58 ± 19 min | 12 ± 4.9 | 0.000283 | 23300 | – | – | –
12 | CCCn1c(=O)c2[nH]c(-c3ccc(OCC(=O)NC(c4ccccc4)c4ccccc4)cc3)nc2n(CCC)c1=O [Compound 26] | 37.9 | 19 ± 6.2 min | 31 ± 16 | 0.000883 | 28300 | – | – | –
13 | CCCn1c(=O)c2[nH]c(-c3ccc(OCC(=O)Nc4cc[nH]n4)cc3)nc2n(CCC)c1=O [Compound 6, 2-(4-(2,6-dioxo-1,3-dipropyl-2,3,6,7-tetrahydro-1H-purin-8-yl)phenoxy)-N-(1H-pyrazol-3-yl)acetamide] | 5480 | – | – | – | – | – | – | –
14 | CCCn1c(=O)c2[nH]c(-c3ccc(OCC(=O)N(CC(=O)OCC)CC(=O)OCC)cc3)nc2n(CCC)c1=O [Compound 11] | – | – | – | – | – | – | – | Ki (human A2BAR [1]; [10]): 112 nM
15 | CCCn1c(=O)c2[nH]c(-c3ccc(OCC(=O)Nc4ccc(C#N)cc4)cc3)nc2n(CCC)c1=O [Compound 13] | – | 69 min and 69 ± 2.4 min | – | – | – | – | – | –
16 | CCCn1c(=O)c2[nH]c(-c3ccc(OCC(=O)NCc4ccccc4)cc3)nc2n(CCC)c1=O [Compound 19] | – | – | – | – | – | 25.9 | 5.02 | Ki (A1 adenosine receptor [3]): 54.7 ± 21.2 nM; Ki (A2A adenosine receptor [6]): 23.8 ± 5.7 nM
17 | CCCn1c(=O)c2[nH]c(-c3ccc(OCC(=O)NC4CCC4)cc3)nc2n(CCC)c1=O [Compound 4, N-cyclobutyl-2-(4-(2,6-dioxo-1,3-dipropyl-2,3,6,7-tetrahydro-1H-purin-8-yl)phenoxy)acetamide] | 61400 | – | – | – | – | – | – | Ki (human A2BAR [1]; […] [3H]PSB-603, 2 h, 25 °C, read-out: affinity (Ki)): 61400 nM
18 | CCCn1c(=O)c2[nH]c(-c3ccc(OCC(=O)Nc4ccc(C)cc4)cc3)nc2n(CCC)c1=O [Compound 12] | 3.42 | 55 ± 25 min | 2.7 ± 1.5 | 0.0003 | 117000 | – | – | –
19 | CCCn1c(=O)c2[nH]c(-c3ccc(OCC(=O)NC4CCCCC4)cc3)nc2n(CCC)c1=O [Compound 7, N-cyclohexyl-2-(4-(2,6-dioxo-1,3-dipropyl-2,3,6,7-tetrahydro-1H-purin-8-yl)phenoxy)acetamide] | 951 | – | – | – | – | 19.3 ± 6.7 | 23 ± 4.1 | Ki (A2B adenosine receptor [2]): 73.5 ± 25.8 nM
20 | CCCn1c(=O)c2[nH]c(-c3ccc(OCC(=O)NC4CC4)cc3)nc2n(CCC)c1=O [Compound 3, N-cyclopropyl-2-(4-(2,6-dioxo-1,3-dipropyl-2,3,6,7-tetrahydro-1H-purin-8-yl)phenoxy)acetamide] | 36.3 | 0.9 min and 0.9 ± 0.0 min | – | 0.0178 | 600000 | 51.7 ± 19.6 | 10.7 ± 1.75 | Ki (A2B adenosine receptor [2]): 36.6 ± 5.1 nM
